Measurements as given in PubChem BioAssay AID328 (DTP/NCI, 2004).
“And” between values parts separate entries of the source, which are not always exact repeats. Identical values can stand only once. Toxic doses and inconclusive results are not listed.

System: BDF1 mice, P388 leukemia ip, median survival T/C
Assay: NCI In Vivo Anticancer Drug Screen. Data for tumor model P388 Leukemia (intraperitoneal) in B6D2F1 (BDF1) mice
Settings: endpoint: median survival time, higher = longer survival
How it was run: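 Vehicle-dosed animals serve as the reference; survival of compound-dosed, tumour-implanted mice is divided by it.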

COC(=O)[C@@H](O)[C@](O)(CCC(C)C)C(=O)O[C@@H]1C(OC)=C[C@]23CCCN2CCc2cc4c(cc2[C@H]13)OCO4
T/C (dose: 0.25 mg/kg/injection, schedule: Q01DX009 (ip), vehicle: saline): 115 % of control
T/C (dose: 0.25 mg/kg/injection, schedule: Q03HX008 (ip), vehicle: saline): 115 % of control
T/C (dose: 0.25 mg/kg/injection, schedule: Q03HX016 (ip), vehicle: saline): 120 % of control
T/C (dose: 0.38 mg/kg/injection, schedule: Q01DX010 (ip), vehicle: saline): 118 % of control
T/C (dose: 0.41 mg/kg/injection, schedule: Q01DX009 (ip), vehicle: saline): 108 % of control
T/C (dose: 0.5 mg/kg/injection, schedule: Q01DX006 (iv), vehicle: saline): 100 % of control
T/C (dose: 0.5 mg/kg/injection, schedule: Q01DX009 (ip), vehicle: saline): 110 % of control
T/C (dose: 0.5 mg/kg/injection, schedule: Q01DX009 (oral), vehicle: saline): 110 % of control
T/C (dose: 0.5 mg/kg/injection, schedule: Q01DX009 (sc), vehicle: saline): 110 % of control
T/C (dose: 0.5 mg/kg/injection, schedule: Q03HX008 (ip), vehicle: saline): 110 % of control
T/C (dose: 0.5 mg/kg/injection, schedule: Q03HX016 (ip), vehicle: saline): 120 % of control
T/C (dose: 0.62 mg/kg/injection, schedule: Q01DX009 (ip), vehicle: saline): 108 % of control
T/C (dose: 1.0 mg/kg/injection, schedule: Q01DX006 (iv), vehicle: saline): 110 % of control
T/C (dose: 1.0 mg/kg/injection, schedule: Q01DX009 (ip), vehicle: saline): 120 % of control
T/C (dose: 1.0 mg/kg/injection, schedule: Q01DX009 (oral), vehicle: saline): 110 % of control
T/C (dose: 1.0 mg/kg/injection, schedule: Q01DX009 (sc), vehicle: saline): 110 % of control
T/C (dose: 1.0 mg/kg/injection, schedule: Q03HX008 (ip), vehicle: saline): 120 % of control
T/C (dose: 1.0 mg/kg/injection, schedule: Q03HX024 (ip), vehicle: saline): 200 % of control
T/C (dose: 1.0 mg/kg/injection, schedule: Q04DX003 (ip), vehicle: saline): 110 % of control
T/C (dose: 1.5 mg/kg/injection, schedule: Q01DX009 (ip), vehicle: saline): 118 % of control
T/C (dose: 1.87 mg/kg/injection, schedule: Q01DX009 (ip), vehicle: water): 150 % of control and 161 % of control
T/C (dose: 2.0 mg/kg/injection, schedule: Q01DX001 (ip), vehicle: saline): 100 % of control
T/C (dose: 2.0 mg/kg/injection, schedule: Q01DX001 (iv), vehicle: saline): 110 % of control
T/C (dose: 2.0 mg/kg/injection, schedule: Q01DX001 (oral), vehicle: saline): 110 % of control
T/C (dose: 2.0 mg/kg/injection, schedule: Q01DX001 (sc), vehicle: saline): 110 % of control
T/C (dose: 2.0 mg/kg/injection, schedule: Q01DX006 (iv), vehicle: saline): 120 % of control
T/C (dose: 2.0 mg/kg/injection, schedule: Q01DX009 (ip), vehicle: saline): 120 % of control
T/C (dose: 2.0 mg/kg/injection, schedule: Q01DX009 (oral), vehicle: saline): 110 % of control
T/C (dose: 2.0 mg/kg/injection, schedule: Q01DX009 (sc), vehicle: saline): 115 % of control
T/C (dose: 2.0 mg/kg/injection, schedule: Q03HX016 (ip), vehicle: saline): 177 % of control
T/C (dose: 2.0 mg/kg/injection, schedule: Q03HX024 (ip), vehicle: saline): 222 % of control
T/C (dose: 2.0 mg/kg/injection, schedule: Q04DX003 (ip), vehicle: saline): 115 % of control
T/C (dose: 2.0 mg/kg/injection, schedule: Q08DX002 (ip), vehicle: saline): 110 % of control
T/C (dose: 3.0 mg/kg/injection, schedule: Q01DX010 (ip), vehicle: saline): 181 % of control
T/C (dose: 3.75 mg/kg/injection, schedule: Q01DX009 (ip), vehicle: water): 172 % of control and 188 % of control
T/C (dose: 4.0 mg/kg/injection, schedule: Q01DX001 (ip), vehicle: saline): 110 % of control
T/C (dose: 4.0 mg/kg/injection, schedule: Q01DX001 (iv), vehicle: saline): 105 % of control
T/C (dose: 4.0 mg/kg/injection, schedule: Q01DX001 (oral), vehicle: saline): 110 % of control
T/C (dose: 4.0 mg/kg/injection, schedule: Q01DX001 (sc), vehicle: saline): 110 % of control
T/C (dose: 4.0 mg/kg/injection, schedule: Q03HX008 (ip), vehicle: saline): 166 % of control
T/C (dose: 4.0 mg/kg/injection, schedule: Q04DX003 (ip), vehicle: saline): 110 % of control
T/C (dose: 4.0 mg/kg/injection, schedule: Q08DX002 (ip), vehicle: saline): 105 % of control
T/C (dose: 6.0 mg/kg/injection, schedule: Q01DX009 (ip), vehicle: saline): 163 % of control
T/C (dose: 6.0 mg/kg/injection, schedule: Q01DX010 (ip), vehicle: saline): 182 % of control
T/C (dose: 7.5 mg/kg/injection, schedule: Q01DX009 (ip), vehicle: saline): 195 % of control
T/C (dose: 7.5 mg/kg/injection, schedule: Q01DX009 (ip), vehicle: water): 266 % of control and 272 % of control
T/C (dose: 8.0 mg/kg/injection, schedule: Q01DX001 (ip), vehicle: saline): 110 % of control
T/C (dose: 8.0 mg/kg/injection, schedule: Q01DX001 (iv), vehicle: saline): 110 % of control
T/C (dose: 8.0 mg/kg/injection, schedule: Q01DX001 (oral), vehicle: saline): 105 % of control
T/C (dose: 8.0 mg/kg/injection, schedule: Q01DX001 (sc), vehicle: saline): 100 % of control
T/C (dose: 8.0 mg/kg/injection, schedule: Q01DX006 (iv), vehicle: saline): 188 % of control
T/C (dose: 8.0 mg/kg/injection, schedule: Q01DX009 (ip), vehicle: saline): 235 % of control and 172 % of control and 222 % of control
T/C (dose: 8.0 mg/kg/injection, schedule: Q01DX009 (oral), vehicle: saline): 200 % of control
T/C (dose: 8.0 mg/kg/injection, schedule: Q01DX009 (sc), vehicle: saline): 200 % of control and 205 % of control
T/C (dose: 12.0 mg/kg/injection, schedule: Q01DX010 (ip), vehicle: saline): 208 % of control
T/C (dose: 15.0 mg/kg/injection, schedule: Q01DX009 (ip), vehicle: water): 105 % of control
T/C (dose: 16.0 mg/kg/injection, schedule: Q01DX001 (ip), vehicle: saline): 110 % of control
T/C (dose: 16.0 mg/kg/injection, schedule: Q01DX001 (iv), vehicle: saline): 120 % of control
T/C (dose: 16.0 mg/kg/injection, schedule: Q01DX001 (oral), vehicle: saline): 115 % of control
T/C (dose: 16.0 mg/kg/injection, schedule: Q01DX001 (sc), vehicle: saline): 110 % of control
T/C (dose: 16.0 mg/kg/injection, schedule: Q01DX009 (ip), vehicle: saline): 305 % of control and 209 % of control
T/C (dose: 16.0 mg/kg/injection, schedule: Q01DX009 (oral), vehicle: saline): 161 % of control
T/C (dose: 16.0 mg/kg/injection, schedule: Q01DX009 (sc), vehicle: saline): 105 % of control
T/C (dose: 16.0 mg/kg/injection, schedule: Q04DX003 (ip), vehicle: saline): 150 % of control
T/C (dose: 24.0 mg/kg/injection, schedule: Q01DX010 (ip), vehicle: saline): 252 % of control
T/C (dose: 32.0 mg/kg/injection, schedule: Q08DX002 (ip), vehicle: saline): 111 % of control
T/C (dose: 125.0 micrograms/kg/injection, schedule: Q03HX024 (ip), vehicle: saline): 100 % of control
T/C (dose: 250.0 micrograms/kg/injection, schedule: Q03HX024 (ip), vehicle: saline): 110 % of control
T/C (dose: 500.0 micrograms/kg/injection, schedule: Q03HX024 (ip), vehicle: saline): 120 % of control
